# Assays:
# Assay type in all cases: functional
# Conditions in all cases: read-out: Activity
# [1] = system: HCT-15; experiment: Cytotoxicity against human HCT-15 cells assessed as cell viability at 10 uM incubated for 48 hrs by sulforhodamine B assay relative to control
# [2] = system: OVCAR-5; experiment: Cytotoxicity against human OVCAR-5 cells assessed as cell viability at 10 uM incubated for 48 hrs by sulforhodamine B assay relative to control
# [3] = system: HOP-92; experiment: Cytotoxicity against human HOP-92 cells assessed as cell viability at 10 uM incubated for 48 hrs by sulforhodamine B assay relative to control
# [4] = system: SF-539; experiment: Cytotoxicity against human SF-539 cells assessed as cell viability at 10 uM incubated for 48 hrs by sulforhodamine B assay relative to control
# [5] = system: ACHN; experiment: Cytotoxicity against human ACHN cells assessed as cell viability at 10 uM incubated for 48 hrs by sulforhodamine B assay relative to control
# [6] = system: MCF7; experiment: Cytotoxicity against human MCF7 cells assessed as cell viability at 10 uM incubated for 48 hrs by sulforhodamine B assay relative to control
# [7] = system: RXF 393; experiment: Cytotoxicity against human RXF 393 cells assessed as cell viability at 10 uM incubated for 48 hrs by sulforhodamine B assay relative to control
# [8] = system: RPMI-8226; experiment: Cytotoxicity against human RPMI-8226 cells assessed as cell viability at 10 uM incubated for 48 hrs by sulforhodamine B assay relative to control
# [9] = system: HOP-62; experiment: Cytotoxicity against human HOP-62 cells assessed as cell viability at 10 uM incubated for 48 hrs by sulforhodamine B assay relative to control
# [10] = system: SNB-19; experiment: Cytotoxicity against human SNB-19 cells assessed as cell viability at 10 uM incubated for 48 hrs by sulforhodamine B assay relative to control
# [11] = system: OVCAR-8; experiment: Cytotoxicity against human OVCAR-8 cells assessed as cell viability at 10 uM incubated for 48 hrs by sulforhodamine B assay relative to control
# [12] = system: CAKI-1; experiment: Cytotoxicity against human CAKI-1 cells assessed as cell viability at 10 uM incubated for 48 hrs by sulforhodamine B assay relative to control
# [13] = system: MDA-MB-231; experiment: Cytotoxicity against human MDA-MB-231 cells assessed as cell viability at 10 uM incubated for 48 hrs by sulforhodamine B assay relative to control
# [14] = system: Hs-578T; experiment: Cytotoxicity against human HS-578T cells assessed as cell viability at 10 uM incubated for 48 hrs by sulforhodamine B assay relative to control
# [15] = system: DU-145; experiment: Cytotoxicity against human DU-145 cells assessed as cell viability at 10 uM incubated for 48 hrs by sulforhodamine B assay relative to control
# [16] = system: UO-31; experiment: Cytotoxicity against human UO-31 cells assessed as cell viability at 10 uM incubated for 48 hrs by sulforhodamine B assay relative to control
# [17] = system: LOX IMVI; experiment: Cytotoxicity against human LOX IMVI cells assessed as cell viability at 10 uM incubated for 48 hrs by sulforhodamine B assay relative to control
# [18] = system: SK-MEL-2; experiment: Cytotoxicity against human SK-MEL-2 cells assessed as cell viability at 10 uM incubated for 48 hrs by sulforhodamine B assay relative to control
# [19] = system: A549; experiment: Cytotoxicity against human A549 cells assessed as cell viability at 10 uM incubated for 48 hrs by sulforhodamine B assay relative to control
# [20] = system: U-251; experiment: Cytotoxicity against human U-251 cells assessed as cell viability at 10 uM incubated for 48 hrs by sulforhodamine B assay relative to control
# [21] = system: SR; experiment: Cytotoxicity against human SR cells assessed as cell viability at 10 uM incubated for 48 hrs by sulforhodamine B assay relative to control
# [22] = system: M14; experiment: Cytotoxicity against human M14 cells assessed as cell viability at 10 uM incubated for 48 hrs by sulforhodamine B assay relative to control
# [23] = system: UACC-257; experiment: Cytotoxicity against human UACC-257 cells assessed as cell viability at 10 uM incubated for 48 hrs by sulforhodamine B assay relative to control
# [24] = system: SK-MEL-5; experiment: Cytotoxicity against human SK-MEL-5 cells assessed as cell viability at 10 uM incubated for 48 hrs by sulforhodamine B assay relative to control
# [25] = system: 786-0; experiment: Cytotoxicity against human 786-0 cells assessed as cell viability at 10 uM incubated for 48 hrs by sulforhodamine B assay relative to control
# [26] = system: NCI-H23; experiment: Cytotoxicity against human NCI-H23 cells assessed as cell viability at 10 uM incubated for 48 hrs by sulforhodamine B assay relative to control
# [27] = system: NCI-H322M; experiment: Cytotoxicity against human NCI-H322M cells assessed as cell viability at 10 uM incubated for 48 hrs by sulforhodamine B assay relative to control
# [28] = system: PC-3; experiment: Cytotoxicity against human PC-3 cells assessed as cell viability at 10 uM incubated for 48 hrs by sulforhodamine B assay relative to control
# [29] = system: SK-MEL-28; experiment: Cytotoxicity against human SK-MEL-28 cells assessed as cell viability at 10 uM incubated for 48 hrs by sulforhodamine B assay relative to control
# [30] = system: SNB-75; experiment: Cytotoxicity against human SNB-75 cells assessed as cell viability at 10 uM incubated for 48 hrs by sulforhodamine B assay relative to control
# [31] = system: SN12C; experiment: Cytotoxicity against human SN12C cells assessed as cell viability at 10 uM incubated for 48 hrs by sulforhodamine B assay relative to control
# [32] = system: NCI-H226; experiment: Cytotoxicity against human NCI-H226 cells assessed as cell viability at 10 uM incubated for 48 hrs by sulforhodamine B assay relative to control
# [33] = system: MOLT-4; experiment: Cytotoxicity against human MOLT-4 cells assessed as cell viability at 10 uM incubated for 48 hrs by sulforhodamine B assay relative to control
# [34] = system: IGROV-1; experiment: Cytotoxicity against human IGROV-1 cells assessed as cell viability at 10 uM incubated for 48 hrs by sulforhodamine B assay relative to control
# [35] = system: HCT-116; experiment: Cytotoxicity against human HCT-116 cells assessed as cell viability at 10 uM incubated for 48 hrs by sulforhodamine B assay relative to control
# [36] = system: OVCAR-3; experiment: Cytotoxicity against human OVCAR-3 cells assessed as cell viability at 10 uM incubated for 48 hrs by sulforhodamine B assay relative to control
# [37] = system: TK-10; experiment: Cytotoxicity against human TK-10 cells assessed as cell viability at 10 uM incubated for 48 hrs by sulforhodamine B assay relative to control
# [38] = system: HCC 2998; experiment: Cytotoxicity against human HCC 2998 cells assessed as cell viability at 10 uM incubated for 48 hrs by sulforhodamine B assay relative to control
# [39] = system: HCT-29; experiment: Cytotoxicity against human […] cells assessed as cell viability at 10 uM incubated for 48 hrs by sulforhodamine B assay relative to control
# [40] = system: COLO 205; experiment: Cytotoxicity against human COLO 205 cells assessed as cell viability at 10 uM incubated for 48 hrs by sulforhodamine B assay relative to control
# [41] = system: SF-295; experiment: Cytotoxicity against human SF-295 cells assessed as cell viability at 10 uM incubated for 48 hrs by sulforhodamine B assay relative to control
smiles,measurement,setting,value
O=C(NCCNc1nccc(-c2c(-c3cccc(F)c3)nc3sccn23)n1)c1ccccc1,viability at 10 µM,[1],34.6%
same,viability at 10 µM,[2],79.9%
same,viability at 10 µM,[3],82.2%
same,viability at 10 µM,[4],81.2%
same,viability at 10 µM,[5],29.1%
same,viability at 10 µM,[6],23.7%
same,viability at 10 µM,[7],60.6%
same,viability at 10 µM,[8],45.7%
same,viability at 10 µM,[9],77.5%
same,viability at 10 µM,[10],63.5%
same,viability at 10 µM,[11],46.8%
same,viability at 10 µM,[12],36.4%
same,viability at 10 µM,[13],65.1%
same,viability at 10 µM,[14],64.7%
same,viability at 10 µM,[15],64.5%
same,viability at 10 µM,[16],22.8%
same,viability at 10 µM,[17],35.1%
same,viability at 10 µM,[18],51.4%
same,viability at 10 µM,[19],26.7%
same,viability at 10 µM,[20],59.4%
same,viability at 10 µM,[21],29.4%
same,viability at 10 µM,[22],28.4%
same,viability at 10 µM,[23],63.1%
same,viability at 10 µM,[24],25.6%
same,viability at 10 µM,[25],45.4%
same,viability at 10 µM,[26],64.9%
same,viability at 10 µM,[27],64.8%
same,viability at 10 µM,[28],62.9%
same,viability at 10 µM,[29],58.7%
same,viability at 10 µM,[30],54.6%
same,viability at 10 µM,[31],48.2%
same,viability at 10 µM,[32],44.3%
same,viability at 10 µM,[33],46.5%
same,viability at 10 µM,[34],16.5%
same,viability at 10 µM,[35],25.6%
same,viability at 10 µM,[36],67.8%
same,viability at 10 µM,[37],73%
same,viability at 10 µM,[38],73.8%
same,viability at 10 µM,[39],25.8%
same,viability at 10 µM,[40],10.4%
same,viability at 10 µM,[41],71.4%
O=C(NCCNc1nccc(-c2c(-c3cccc(F)c3)nc3sccn23)n1)c1ccc(Cl)cc1,viability at 10 µM,[1],40.1%
same,viability at 10 µM,[2],88.3%
same,viability at 10 µM,[3],87.1%
same,viability at 10 µM,[4],90%
same,viability at 10 µM,[5],34.2%
same,viability at 10 µM,[6],27.7%
same,viability at 10 µM,[7],72.9%
same,viability at 10 µM,[8],62.4%
same,viability at 10 µM,[9],91.9%
same,viability at 10 µM,[10],71.9%
same,viability at 10 µM,[11],55.1%
same,viability at 10 µM,[12],41.5%
same,viability at 10 µM,[13],65.5%
same,viability at 10 µM,[14],74.8%
same,viability at 10 µM,[15],71%
same,viability at 10 µM,[16],28.1%
same,viability at 10 µM,[17],43.4%
same,viability at 10 µM,[18],62.5%
same,viability at 10 µM,[19],34.8%
same,viability at 10 µM,[20],66.1%
same,viability at 10 µM,[21],46.5%
same,viability at 10 µM,[22],38.8%
same,viability at 10 µM,[23],76%
same,viability at 10 µM,[24],33.6%
same,viability at 10 µM,[25],54.5%
same,viability at 10 µM,[26],73.5%
same,viability at 10 µM,[27],66.3%
same,viability at 10 µM,[28],72.5%
same,viability at 10 µM,[29],64.9%
same,viability at 10 µM,[30],63.5%
same,viability at 10 µM,[31],52.5%
same,viability at 10 µM,[32],51.2%
same,viability at 10 µM,[33],65.7%
same,viability at 10 µM,[34],22.5%
same,viability at 10 µM,[35],33%
same,viability at 10 µM,[36],75.7%
same,viability at 10 µM,[37],75.4%
same,viability at 10 µM,[38],90.1%
same,viability at 10 µM,[39],35.2%
same,viability at 10 µM,[40],29.8%
same,viability at 10 µM,[41],73.8%
O=C(NCCNc1nccc(-c2c(-c3cccc(F)c3)nc3sccn23)n1)c1c(F)cccc1F,viability at 10 µM,[1],31.1%
same,viability at 10 µM,[2],72.7%
same,viability at 10 µM,[3],66.2%
same,viability at 10 µM,[4],65.9%
same,viability at 10 µM,[5],26%
same,viability at 10 µM,[6],17.5%
same,viability at 10 µM,[7],57.1%
same,viability at 10 µM,[8],41%
same,viability at 10 µM,[9],63.8%
same,viability at 10 µM,[10],55.2%
same,viability at 10 µM,[11],44.2%
same,viability at 10 µM,[12],34.5%
same,viability at 10 µM,[13],81.2%
same,viability at 10 µM,[14],53.3%
same,viability at 10 µM,[15],50.1%
same,viability at 10 µM,[16],20.8%
same,viability at 10 µM,[17],32.4%
same,viability at 10 µM,[18],62.4%
same,viability at 10 µM,[19],29.1%
same,viability at 10 µM,[20],49.7%
same,viability at 10 µM,[21],26%
same,viability at 10 µM,[22],29.3%
same,viability at 10 µM,[23],54.7%
same,viability at 10 µM,[24],17.1%
same,viability at 10 µM,[25],44.2%
same,viability at 10 µM,[26],61.9%
same,viability at 10 µM,[27],57.5%
same,viability at 10 µM,[28],57%
same,viability at 10 µM,[29],51.1%
same,viability at 10 µM,[30],59.5%
same,viability at 10 µM,[31],45%
same,viability at 10 µM,[32],40.7%
same,viability at 10 µM,[33],35.9%
same,viability at 10 µM,[34],12.1%
same,viability at 10 µM,[35],24.9%
same,viability at 10 µM,[36],56.8%
same,viability at 10 µM,[37],66.6%
same,viability at 10 µM,[38],70.4%
same,viability at 10 µM,[39],20.4%
same,viability at 10 µM,[40],19.2%
same,viability at 10 µM,[41],66.8%
